{"source": "ChEMBL document CHEMBL5465560", "about": "“Selectivity Literature for EUbOPEN Chemogenomic Library” (2024)", "key": {"[1]": {"target": "Interferon-induced, double-stranded RNA-activated protein kinase (Homo sapiens) (UniProt P19525)", "sequence (P19525 whole entry)": "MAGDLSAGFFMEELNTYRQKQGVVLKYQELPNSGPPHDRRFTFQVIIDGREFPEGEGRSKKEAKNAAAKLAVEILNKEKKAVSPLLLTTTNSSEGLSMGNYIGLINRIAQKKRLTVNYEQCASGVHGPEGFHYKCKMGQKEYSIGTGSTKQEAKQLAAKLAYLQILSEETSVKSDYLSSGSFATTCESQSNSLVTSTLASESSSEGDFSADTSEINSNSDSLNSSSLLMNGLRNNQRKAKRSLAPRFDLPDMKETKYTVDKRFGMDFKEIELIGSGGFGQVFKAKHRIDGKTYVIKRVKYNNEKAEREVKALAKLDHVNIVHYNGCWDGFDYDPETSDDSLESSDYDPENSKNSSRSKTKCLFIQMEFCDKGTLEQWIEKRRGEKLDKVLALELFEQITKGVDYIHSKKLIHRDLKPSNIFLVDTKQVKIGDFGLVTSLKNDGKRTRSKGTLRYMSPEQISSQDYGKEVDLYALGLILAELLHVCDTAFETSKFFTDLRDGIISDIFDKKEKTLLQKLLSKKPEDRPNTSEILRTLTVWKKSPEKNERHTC", "experiment": "Selectivity interaction (ProQinase) EUB0000171b EIF2AK2"}, "[2]": {"target": "Casein kinase II subunit alpha' (Homo sapiens) (UniProt P19784)", "sequence (P19784 whole entry, looked up)": "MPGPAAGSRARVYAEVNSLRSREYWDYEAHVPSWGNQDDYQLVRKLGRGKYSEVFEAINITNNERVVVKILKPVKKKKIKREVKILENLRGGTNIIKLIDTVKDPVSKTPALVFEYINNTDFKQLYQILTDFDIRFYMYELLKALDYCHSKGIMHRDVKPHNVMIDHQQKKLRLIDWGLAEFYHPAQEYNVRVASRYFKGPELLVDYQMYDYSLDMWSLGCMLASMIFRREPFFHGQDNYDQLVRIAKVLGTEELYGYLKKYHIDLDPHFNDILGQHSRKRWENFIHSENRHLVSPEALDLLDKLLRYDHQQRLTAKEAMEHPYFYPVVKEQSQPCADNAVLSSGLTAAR", "experiment": "Selectivity interaction (Kinase panel (DSF assay)) EUB0001559a CSNK2A2"}, "[3]": {"target": "MAP/microtubule affinity-regulating kinase 3 (Homo sapiens) (UniProt P27448)", "sequence (P27448 whole entry, looked up)": "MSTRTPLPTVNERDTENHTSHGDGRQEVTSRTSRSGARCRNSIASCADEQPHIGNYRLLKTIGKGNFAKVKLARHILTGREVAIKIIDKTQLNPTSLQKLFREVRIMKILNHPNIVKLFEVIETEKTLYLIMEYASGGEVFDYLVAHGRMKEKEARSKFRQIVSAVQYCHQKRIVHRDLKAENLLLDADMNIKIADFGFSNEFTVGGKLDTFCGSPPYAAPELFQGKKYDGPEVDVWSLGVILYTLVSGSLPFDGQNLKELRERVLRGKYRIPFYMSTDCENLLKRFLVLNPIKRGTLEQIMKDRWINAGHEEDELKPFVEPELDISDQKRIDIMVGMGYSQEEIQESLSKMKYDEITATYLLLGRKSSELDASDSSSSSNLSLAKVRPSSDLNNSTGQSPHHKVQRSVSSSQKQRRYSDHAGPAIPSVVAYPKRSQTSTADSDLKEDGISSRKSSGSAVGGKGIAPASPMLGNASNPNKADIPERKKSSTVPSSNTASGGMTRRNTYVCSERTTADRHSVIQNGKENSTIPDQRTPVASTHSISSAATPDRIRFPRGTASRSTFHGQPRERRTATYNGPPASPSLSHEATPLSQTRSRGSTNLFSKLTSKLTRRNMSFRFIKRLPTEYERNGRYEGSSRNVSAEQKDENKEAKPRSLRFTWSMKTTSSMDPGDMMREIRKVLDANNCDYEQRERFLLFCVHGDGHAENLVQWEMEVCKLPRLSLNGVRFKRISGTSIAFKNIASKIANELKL", "experiment": "Selectivity interaction (KinomeScan (DiscoverX)) EUB0001079a MARK3", "settings": "at 1 µM"}, "[4]": {"target": "T1, Serine/threonine-protein kinase Nek11 (Homo sapiens) (UniProt Q8NG66)", "T1 sequence (whole entry)": "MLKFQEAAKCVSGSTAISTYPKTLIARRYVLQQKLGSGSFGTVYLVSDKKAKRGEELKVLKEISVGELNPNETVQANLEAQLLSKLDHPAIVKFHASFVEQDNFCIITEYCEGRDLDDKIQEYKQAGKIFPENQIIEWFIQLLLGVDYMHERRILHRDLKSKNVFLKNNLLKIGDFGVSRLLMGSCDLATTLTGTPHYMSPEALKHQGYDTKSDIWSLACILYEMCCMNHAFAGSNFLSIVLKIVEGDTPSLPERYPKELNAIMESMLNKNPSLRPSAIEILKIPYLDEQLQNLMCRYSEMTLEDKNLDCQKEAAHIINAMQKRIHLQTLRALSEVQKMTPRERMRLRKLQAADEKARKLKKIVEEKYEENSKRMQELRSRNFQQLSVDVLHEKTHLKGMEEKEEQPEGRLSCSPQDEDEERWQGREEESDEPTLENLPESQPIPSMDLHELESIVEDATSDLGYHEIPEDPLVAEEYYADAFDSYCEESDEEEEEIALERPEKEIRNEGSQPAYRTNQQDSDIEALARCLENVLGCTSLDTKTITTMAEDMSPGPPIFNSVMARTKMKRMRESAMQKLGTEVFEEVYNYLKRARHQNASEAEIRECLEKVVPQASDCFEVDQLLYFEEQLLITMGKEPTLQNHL", "experiment": "Selectivity interaction (KinomeScan (DiscoverX)) EUB0001079a NEK11", "settings": "at 1 µM"}, "[5]": {"target": "T2, Mitogen-activated protein kinase kinase kinase 6 (Homo sapiens) (UniProt O95382)", "T2 sequence (whole entry)": "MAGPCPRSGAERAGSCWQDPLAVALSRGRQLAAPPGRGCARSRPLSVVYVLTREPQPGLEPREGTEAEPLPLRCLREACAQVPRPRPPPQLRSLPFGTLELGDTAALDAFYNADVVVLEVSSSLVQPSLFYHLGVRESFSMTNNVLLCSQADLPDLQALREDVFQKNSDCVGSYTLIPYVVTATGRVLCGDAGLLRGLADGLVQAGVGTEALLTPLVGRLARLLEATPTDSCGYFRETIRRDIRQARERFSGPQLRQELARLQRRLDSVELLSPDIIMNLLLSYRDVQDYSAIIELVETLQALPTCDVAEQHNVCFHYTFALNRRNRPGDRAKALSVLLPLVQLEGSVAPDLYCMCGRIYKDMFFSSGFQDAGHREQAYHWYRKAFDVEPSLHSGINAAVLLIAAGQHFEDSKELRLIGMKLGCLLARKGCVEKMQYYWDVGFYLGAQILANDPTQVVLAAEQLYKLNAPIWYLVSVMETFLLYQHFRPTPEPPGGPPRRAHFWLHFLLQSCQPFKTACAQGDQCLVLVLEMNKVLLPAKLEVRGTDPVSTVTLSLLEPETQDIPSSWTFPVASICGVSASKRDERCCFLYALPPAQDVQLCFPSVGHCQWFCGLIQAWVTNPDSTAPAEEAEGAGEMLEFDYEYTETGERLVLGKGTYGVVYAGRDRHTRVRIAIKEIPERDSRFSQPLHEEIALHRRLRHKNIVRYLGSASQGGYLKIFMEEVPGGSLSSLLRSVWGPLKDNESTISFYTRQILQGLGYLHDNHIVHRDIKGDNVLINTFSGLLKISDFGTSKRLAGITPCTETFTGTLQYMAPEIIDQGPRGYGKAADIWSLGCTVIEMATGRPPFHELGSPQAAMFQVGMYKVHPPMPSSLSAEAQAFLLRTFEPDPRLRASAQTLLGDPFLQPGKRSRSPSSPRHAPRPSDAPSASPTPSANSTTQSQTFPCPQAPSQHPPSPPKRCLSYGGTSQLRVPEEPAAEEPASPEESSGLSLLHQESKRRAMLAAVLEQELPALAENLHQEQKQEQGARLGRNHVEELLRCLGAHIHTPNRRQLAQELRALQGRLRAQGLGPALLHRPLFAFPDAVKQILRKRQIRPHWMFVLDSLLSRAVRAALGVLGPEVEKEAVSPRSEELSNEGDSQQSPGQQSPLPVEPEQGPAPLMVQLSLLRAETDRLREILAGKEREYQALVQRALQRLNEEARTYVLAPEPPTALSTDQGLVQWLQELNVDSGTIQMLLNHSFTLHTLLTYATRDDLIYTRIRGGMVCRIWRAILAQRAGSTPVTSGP", "settings": "at 10 µM"}, "[6]": {"target": "Tyrosine-protein kinase Fyn (Homo sapiens) (UniProt P06241)", "sequence (P06241 2-537 limits assumed)": "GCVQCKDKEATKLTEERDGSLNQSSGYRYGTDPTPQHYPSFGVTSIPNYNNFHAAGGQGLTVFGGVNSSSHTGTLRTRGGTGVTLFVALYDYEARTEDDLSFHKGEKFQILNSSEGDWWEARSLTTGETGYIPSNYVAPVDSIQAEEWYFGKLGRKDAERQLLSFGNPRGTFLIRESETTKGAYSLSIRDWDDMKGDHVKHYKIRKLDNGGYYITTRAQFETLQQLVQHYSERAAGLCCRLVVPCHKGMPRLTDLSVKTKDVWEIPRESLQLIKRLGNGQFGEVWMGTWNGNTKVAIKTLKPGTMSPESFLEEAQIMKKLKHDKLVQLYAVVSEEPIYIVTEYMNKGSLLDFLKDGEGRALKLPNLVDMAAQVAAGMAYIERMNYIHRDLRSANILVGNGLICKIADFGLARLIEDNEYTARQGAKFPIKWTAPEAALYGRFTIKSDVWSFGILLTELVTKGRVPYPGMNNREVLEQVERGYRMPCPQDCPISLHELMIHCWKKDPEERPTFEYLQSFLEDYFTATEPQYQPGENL", "experiment": "Selectivity interaction (KinomeScan (DiscoverX)) EUB0000607a FYN", "settings": "at 10 µM"}, "[7]": {"target": "T3, Histone-arginine methyltransferase CARM1 (Homo sapiens) (UniProt Q86X55)", "T3 sequence (whole entry)": "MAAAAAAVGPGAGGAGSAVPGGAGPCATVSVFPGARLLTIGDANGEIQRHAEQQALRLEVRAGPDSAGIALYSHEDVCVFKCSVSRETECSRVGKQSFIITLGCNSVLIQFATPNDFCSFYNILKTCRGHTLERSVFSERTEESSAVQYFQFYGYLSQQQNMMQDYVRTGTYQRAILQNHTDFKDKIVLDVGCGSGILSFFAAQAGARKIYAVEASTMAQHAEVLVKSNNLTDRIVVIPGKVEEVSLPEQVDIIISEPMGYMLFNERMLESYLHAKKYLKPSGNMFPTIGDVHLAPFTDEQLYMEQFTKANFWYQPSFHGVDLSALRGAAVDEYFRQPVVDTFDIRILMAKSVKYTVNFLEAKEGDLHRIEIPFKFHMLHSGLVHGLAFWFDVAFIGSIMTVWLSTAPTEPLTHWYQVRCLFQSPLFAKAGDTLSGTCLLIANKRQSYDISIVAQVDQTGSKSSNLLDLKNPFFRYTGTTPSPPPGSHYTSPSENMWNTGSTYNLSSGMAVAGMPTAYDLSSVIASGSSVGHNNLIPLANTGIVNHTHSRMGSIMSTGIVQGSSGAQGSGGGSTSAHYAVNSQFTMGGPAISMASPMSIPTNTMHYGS", "experiment": "Selectivity interaction (Methyltransferase screen (radiometric assays, panel of 8 PRMTs, 21 protein lysine methyltransferases, 3 DNA methyltransferases, and one RNA methyltransferase)) EUB0000271b CARM1"}, "[8]": {"target": "LIM domain kinase 1 (Homo sapiens) (UniProt P53667)", "sequence (P53667 whole entry, looked up, the tested form may be a part)": "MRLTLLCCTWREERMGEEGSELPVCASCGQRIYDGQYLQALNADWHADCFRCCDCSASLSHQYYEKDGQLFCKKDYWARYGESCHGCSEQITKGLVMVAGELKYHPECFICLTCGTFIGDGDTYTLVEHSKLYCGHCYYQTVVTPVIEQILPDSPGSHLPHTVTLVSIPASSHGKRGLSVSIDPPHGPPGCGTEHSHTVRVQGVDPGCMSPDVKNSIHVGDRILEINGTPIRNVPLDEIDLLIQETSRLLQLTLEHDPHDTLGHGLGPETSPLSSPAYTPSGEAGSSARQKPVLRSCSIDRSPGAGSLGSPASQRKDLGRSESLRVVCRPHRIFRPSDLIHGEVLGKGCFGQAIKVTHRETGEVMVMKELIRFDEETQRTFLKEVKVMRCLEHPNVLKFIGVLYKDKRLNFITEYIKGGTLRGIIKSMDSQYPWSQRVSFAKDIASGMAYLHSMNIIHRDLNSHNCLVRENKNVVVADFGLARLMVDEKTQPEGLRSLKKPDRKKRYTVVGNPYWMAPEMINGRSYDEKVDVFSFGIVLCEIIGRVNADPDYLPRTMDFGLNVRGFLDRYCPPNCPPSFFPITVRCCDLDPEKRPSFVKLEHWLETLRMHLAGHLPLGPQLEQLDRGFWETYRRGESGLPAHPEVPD", "experiment": "Selectivity interaction (KinomeScan (DiscoverX)) EUB0001619a LIMK1", "settings": "at 1 µM"}}, "data": [{"compound": "C=CC(=O)Nc1cccc(C(=O)Nc2ccc(Nc3cc(-c4[nH]c(SC)nc4C)ccn3)cc2)c1", "values": [{"measurement": "% of control", "setting": "[1]; at 1 µM", "result": 84, "unit": "%"}, {"measurement": "% of control", "setting": "[1]; at 5 µM", "result": 55, "unit": "%"}]}, {"compound": "CN(C(=O)c1cnn2cccnc12)c1cc2c(cc1N1CCOCC1)C(=O)N(C[C@@H](F)C(C)(C)O)C2", "values": [{"measurement": "dTM", "setting": "[2]", "result": 1.4, "unit": "K"}]}, {"compound": "Nc1cnc(N2CCc3cc(S(=O)(=O)Nc4c(F)cc(Cl)cc4F)cc(N4CCCC4=O)c32)nc1", "note": "[TP-020n]", "values": [{"measurement": "% of control", "setting": "[3]", "result": 100, "unit": "%"}, {"measurement": "% of control", "setting": "[4]", "result": 100, "unit": "%"}]}, {"compound": "Cc1cc([C@@H](C)Nc2ccccc2C(=O)O)c2nc(N3CCOCC3)cc(=O)n2c1", "note": "[AZD-6482]", "values": [{"measurement": "% of control", "setting": "[5]", "result": 95, "unit": "%"}]}, {"compound": "CNC(=O)Nc1ccc(-c2nc(N3CC4CCC(C3)O4)c3cnn(C4CCC5(CC4)OCCO5)c3n2)cc1", "values": [{"measurement": "% of control", "setting": "[6]", "result": 70, "unit": "%"}]}, {"compound": "Cc1cc(C)cc([C@@H]2c3cc(C)ccc3NC(=O)CN2C(=O)c2ccc(Br)s2)c1", "values": [{"measurement": "% of activity", "setting": "[7]; at 1 µM", "result": 98, "unit": "%"}, {"measurement": "% of activity", "setting": "[7]; at 10 µM", "result": 96.3, "unit": "%"}]}, {"compound": "N#Cc1cccc(-c2c[nH]c3ncnc(N4CCOCC4)c23)c1", "values": [{"measurement": "% of control", "setting": "[8]", "result": 93, "unit": "%"}]}]}
